The source of these data is patent US8449788B2, “Leather finishing compositions comprising dioxolane derivatives” (Rhodia Poliamida e Especialidades Ltda, priority 2009, dated 2013).

Series [1] is described as follows: Solubilization of a dye-metal complex. It counts as physicochemical. As to the method: Solketal was tested to solubilize a dye-metal complex.
For series [2] the following is noted: cited from earlier work.
The next series relates to mouse. The note with it: cited from earlier work.
For series [3] the following is noted: cited from earlier work. The source holds these as a separate data set.
The conditions of series [4]: cited from earlier work. This is another data set of the same source.

Like-named read-outs stand apart in the source and are kept apart here.

In the case of `CC1(C)OCC(CO)O1` (stereo not drawn) [Solketal, 2,2-dimethyl-1,3-dioxolane-4-methanol], the “Performance as solvent for dye-metal complex” value was “good compared to diacetone alcohol and methoxy propanol, and less effective compared to ethyldiglycol, ethylglycol, butyldiglycol and butylglycol” in series [1]; “average” in series [1] (listed as solketal). For the same compound, the “Solubility in water at 20° C.” value in series [2] is recorded as “miscible”. Also, in the series with mouse, the “LD50 (oral/mouse mg/kg)” value is reported as 7000 mg/kg. The “Reversion in slightly acid pH (biodegradability)” value in series [3] is “may revert into acetone and glycerin”. Further, in series [4], the Acute oral toxicity was 7.00.
